Structure (SMILES) | melting point [°C]
CC(CCC(O)(c1ccccc1)c1ccccc1)C1CCC2C3C(O)CC4CC(O)CCC4(C)C3CC(O)C12C (stereo not given) | 162 to 170
Nc1c(Br)cc(Cl)cc1Br | 93 to 95
O=Cc1cccc2ncccc12 | 96
c1ccc2c(c1)NC1(CCCCC1)O2 | 243
COc1cc(C(=O)c2cccc(C)c2)c([N+](=O)[O-])cc1OC | 121
COc1cc(C=O)cc([N+](=O)[O-])c1O | 176
CC(C)NCC(O)COc1ccc(O)cc1 (stereo not given) | 128
Cc1ccc(Oc2ccc([N+](=O)[O-])cc2)cc1 | 69
O=S(=O)(Cl)c1ccc(CBr)cc1 | 74
CC(C)N(C(=O)CCl)c1ccccc1 | 77
c1ccc(-c2cccs2)cc1 | 34 to 36
CC(=O)Nc1cc(Cl)c(Cl)cc1NC(C)=O | 255 to 258
Oc1cc(Cl)cc(Cl)c1O | 82.5
Cc1ccccc1-c1ccccc1P(C(C)(C)C)C(C)(C)C | 91.5
Clc1ccc2nc(Cl)c(Cl)nc2c1 | 143 to 148
COC(=O)Oc1c(F)c(F)c(F)c(F)c1F | 29
O=C(c1ccc(C(=O)C(Cl)Cl)cc1)C(Cl)Cl | 143
O=C(O)/C=C/c1cccc(F)c1 | 167
ClCC=Cc1ccccc1 | -19
CCOC(=O)c1ccc(Cl)c([N+](=O)[O-])c1 | 57 to 61
O=C(O)c1ccccc1-c1ccco1 | 87
[N-]=[N+]=Nc1ccccc1-c1ccccc1 | 49
N#Cc1c(F)c(F)cc(F)c1F | 34
O=[N+]([O-])c1cccc(-c2nnc3n2NC(c2ccc(Cl)cc2)S3)c1 (stereo not given) | 199
CC12CCc3c(ccc4cc(O)ccc34)C1CCC2=O (stereo not given) | 258
CC(C)(C)[Si](C)(C)Cl | 88

Structure (SMILES) | melting point [°C]
O=C(Cc1ccccc1)OCc1c([N+](=O)[O-])cccc1[N+](=O)[O-] | 90
CC(=O)Nc1ccc([N+](=O)[O-])c(C(F)(F)F)c1 | 108 to 109
FC(F)(Cl)C(F)(F)Cl | -94
CCCCCCCOC(=O)CCCCC | -34.4
CCOC(=O)c1nn(-c2ccc(C)cc2)c(C)c1C(=O)C1=NOC2C(=O)N(c3ccc(Br)cc3)C(=O)C12 (stereo not given) | 238
O=C(O)c1onc2ccccc12 | 185
CCOC(=O)c1ccc(NC)c(N)c1 | 87 to 88
Cc1ccc2nc(C)cc(C)c2c1 | 68
BrCCCCCBr | -34
CCOC(=O)c1sc2ncccc2c1N | 183 to 185
O=C1/C(=N\Nc2ccccc2)C(c2ccc([N+](=O)[O-])cc2)=NN1c1ccccc1 | 239 to 240
CC1COCc2cc3c(cc21)C(C)(C)C(C)C3(C)C (stereo not given) | -5
CC(CCC(=O)O)n1nnc2ccccc21 (stereo not given) | 86
CCCCCC=CCC=CCCCCCCCC(=O)O | -5
CC1CCNCC1 | 5
COc1ccc(C(C)=NO)cc1 | 80
C1CCC(P(C2CCCCC2)C2CCCCC2)CC1 | 77 to 83
CCCCCCCCCCCCCCCCCCCCCCCCCCO | 80
CC12CCC(C(=CC(=O)O)C1=O)C2(C)C (stereo not given) | 106
CN1CCC23c4c5ccc(O)c4OC2C(=O)CCC3C1C5 (stereo not given) | 266
CCc1ccc(C(=O)NN)cc1 | 84 to 87
CCCCCCCCC(N)=O | 99.5
CCOC(=O)Nc1ccccc1 | 47 to 51
CC(C)CCCC(C)C1CCC2C3CC(Cl)C4(O)CC(=O)CCC4(C)C3CCC12C (stereo not given) | 214
O=Cc1ccc(OCc2c(F)cccc2Cl)cc1 | 74 to 78
Cn1cc([N+](=O)[O-])c(=O)[nH]c1=O | 267 to 270

Structure (SMILES) | melting point [°C]
O=C(Cl)c1cccc(-c2ncccn2)c1 | 136 to 137
Cn1cc(-c2ccccc2)c(=O)c(-c2cccc(C(F)(F)F)c2)c1 | 154
CSc1nc(N)nc(-c2cnccn2)n1 | 215
BrC12CC3CC(CC(C3)C1)C2 | 119
O=C(O)C1(O)CC(O)C(O)C(O)C1 (stereo not given) | 166 to 168
Cc1cc(Cl)nn1C | 47.5
CC(C)S(=O)(=O)c1csc(C(=O)Cl)c1Cl | 170 to 171
O=[N+]([O-])c1ccc(-c2nnc3n2CN(c2ccccn2)CS3)cc1 | > 300
COC(=O)C(OC)C(=O)OC | 11 to 12
O=c1[nH]c(=O)n(C2CC(O)C(CO)O2)cc1C(F)(F)F (stereo not given) | 188
Brc1cnc(N2CCNCC2)nc1 | 77 to 79
Cc1ccc(S(=O)(=O)NCCCN(CCCN(CCCNS(=O)(=O)c2ccc(C)cc2)S(=O)(=O)c2ccc(C)cc2)S(=O)(=O)c2ccc(C)cc2)cc1 | 126
C=CCCCCCCC1CO1 (stereo not given) | 25
COC(=O)c1cc2cc(S(C)(=O)=O)ccc2[nH]1 | 175 to 179
CCCCCCCCCCCCCCCCCCSSCCCCCCCCCCCCCCCCCC | 62
CN(C)c1ccccc1-c1ccccc1P(c1ccccc1)c1ccccc1 | 126 to 128
ClCC1CN(Cc2ccccc2)CCO1 (stereo not given) | 46 to 50
O=C(Cl)c1c(Cl)cccc1Cl | 18
CC(C)(O)Cc1ccccc1 | 24
COc1ccc([N+](=O)[O-])c(I)c1 | 68 to 73
O=C(/C=C/OC(=O)c1ccccc1)CCc1ccccc1 | 99 to 100
CC(CO)c1c(O)c(O)c2c(c1O)C(=O)C(=O)C1C2(C)CCC(O)C1(C)C (stereo not given) | 214 to 216
C[C@]12C=CC(=O)C=C1C(=O)C[C@@H]1[C@@H]2CC[C@@]2(C)[C@H]1CCC21OCCO1 | 207
Cc1cccc(C(=O)N(NC(=O)c2ccccc2)C(C)(C)C)c1 | 211
NN=C(/C(=N/N)c1ccccc1)c1cccc2ccccc12 | 217 to 218
CC(O)CC(C)O (stereo not given) | 50 to 52

Structure (SMILES) | melting point [°C]
CC1=CCC=C(C)CCC=C(C)CCC(C(C)C)C=C1 (stereo not given) | 59 to 61
CCOc1cc(C(=S)N2CCCCC2)ccc1OCc1ccccc1 | 72
CCC1(c2ccccc2)C(=O)NCNC1=O | 281
COc1ccc(/C=C/c2ccc([N+](=O)[O-])cc2[N+](=O)[O-])cc1O | 190 to 191
Brc1ccccc1COc1ccccc1 | 41 to 42
Nc1ccc(OC(F)(F)F)cc1[N+](=O)[O-] | 62 to 64
Cn1ccc2cc(C=O)ccc21 | 84 to 86
Cc1ccc([N+](=O)[O-])cc1F | 35
NC(=S)Nc1cccnc1 | 159 to 160
Cc1cc(O)c(C2CC3CCC2(C)C3(C)C)cc1C (stereo not given) | 95
Nc1nc(-c2ccc(Br)s2)cs1 | 170
C=CCC1(C(C)CCC)C(=O)NC(=S)NC1=O (stereo not given) | 132
CC(C)NC(=O)N1CC(=O)N(c2cc(Cl)cc(Cl)c2)C1=O | 136
Cc1ccc2ncoc2c1 | 29 to 31
CCOC(=O)C(C#N)=C1SCCS1 | 106
CC(=O)Oc1cc(C(F)(F)F)ccc1C(=O)O | 121
O=[N+]([O-])c1ccc(-c2ccno2)cc1 | 172 to 174
CCc1cccc(Cc2ccccc2)c1 | -9
O=C(O)C1CSC(c2cccnc2)=N1 (stereo not given) | 180 to 181
COC(=O)c1csc(S(=O)(=O)Cl)c1OC | 93 to 96
Cc1nc(-c2ccccc2)c(C)s1 | 28
C1CNCCCNCCNCCCNC1 | 98 to 102
Cc1c(Br)cccc1[N+](=O)[O-] | 40
O=C(O)[C@H]1CC[C@H](C(=O)O)CC1 | 312
O=C(SSC(=O)c1ccccc1)c1ccccc1 | 134
CCOC(=O)c1[nH]c2cc(Cl)cc(Cl)c2c1C=O | 213 to 217

Structure (SMILES) | melting point [°C]
COC(=O)c1ccc2c(c1)CC1(CCC(c3ccc(C(C)(C)C)cc3)CC1)C2 (stereo not given) | 118
SC1=NNC(c2ccccn2)S1 (stereo not given) | 114 to 116
Clc1cncc(Oc2ccc(Cl)nn2)c1 | 112 to 114
FC(F)(F)C(F)(Cl)Cl | -56.6
COc1cc2c(cc1OC)C1CC(=O)C(CC(C)C)CN1CC2 (stereo not given) | 128
NC(CS(=O)(=O)Cc1ccc(F)cc1)=NO | 182 to 185
CCOC(=O)NC(=S)Nc1sc2c(c1C(=O)OCC)CCCC2 | 187 to 190
CC(=O)OC1CCC2C3CCC4CC(C(C)=O)CCC4(C)C3CCC12C (stereo not given) | 140
O=C(O)c1ccc(Cn2cccn2)cc1 | 192 to 193
O=C(CBr)c1cccc([N+](=O)[O-])c1 | 94
NC(C(=O)O)C1=CCC=CC1 (stereo not given) | 260
O=C(CC(=O)C(F)(F)F)c1ccco1 | 20.5
O=C(O)c1cc(Cl)c(Cl)c(Cl)c1Cl | 194
COC(=O)c1cccc(CBr)c1 | 44
C[Si](C)(C)O[Si](C)(C)O[Si](C)(C)C | -80
O=C1CCCCCN1Cc1ccccc1 | 56 to 57
Cc1c(C2(c3cc(Br)c(O)c(Br)c3C)OS(=O)(=O)c3ccccc32)cc(Br)c(O)c1Br | 222
O=[N+]([O-])c1cccc(-c2noc(CCl)n2)c1 | 60 to 62
Nc1ccc(Br)c(Cl)c1Cl | 75 to 77
Cc1c(C(=O)CCl)sc2ccc(Cl)cc12 | 158 to 160
CC1Cc2c(Cl)cc(C(=O)NC(Cc3ccccc3)C(=O)O)c(O)c2C(=O)O1 (stereo not given) | 169
Cc1ccc(C(=O)C(C)CN2CCCCC2)cc1 (stereo not given) | 176
Cc1ccc(Oc2ncccc2N)c2c1CCC2 | 150
CCCCCCCCCCCCCCCCOP(=O)(O)OCCCCCCCCCCCCCCCC | 74.5
COC(=O)c1cc(Cl)cc(Cl)c1 | 59
O=C(Cl)c1csc2ccc(Br)cc12 | 125 to 126
